Reference: paper PMC7525662, “Preclinical dosimetry models and the prediction of clinical doses of novel positron emission tomography radiotracers” (Scientific Reports, 2020)
Marks after values point to notes of the source that are not given here. Each block holds one compound with its values, some of them ahead of it.

Columns and labels:
Parameters in all cases: species or system Sprague–Dawley rats
[1] = Residence times in rat source organs from whole-body PET, FBP reconstruction; settings: in vivo, iv
Experimental: Immediately after radiotracer administration, a 240 min emission scan using 4 beds (50% overlap) was obtained using 3-dimensional 1:5 mode and re-binned as follows: 7 × 1 min, 2 × 5 min and 4 × 10 min. Throughout the PET/CT scanning session, animal temperature and respiration rate were monitored and controlled. PET studies were reconstructed using filtered-back projection (FBP) and Mediso’s iterative Tera-Tomo 3D reconstruction algorithm with the following settings: 4 iterations, 6 subsets, full detector model, normal regularization, spike filter on, voxel size 0.4 mm and 400‒600 keV energy window. PET data were corrected for randoms, scatter and attenuation. […] Then, PMOD’s contours interpolation tool was used to interpolate ROIs for each organ into a corresponding volume-of-interest (VOI). A static cuboidal VOI was also drawn to include the animal whole-body. Time-activity curves for each source organ, whole-body and remainder of the body were plotted. […] Residence times (τ) were determined for each radiotracer in source organs, whole-body and remaining (any activity assigned to the whole-body but not assigned to a source organ). Each preclinical source organ’s τ was determined by calculating the area under its respective time-activity curve (activity normalised to the percentage maximum injected dose as a function of time) using the trapezoid method. […] From each individual animal, eight dosimetry models were constructed from all possible combinations of image reconstruction method (FBP or iterative), τ (non-normalised or normalised to human organ masses), and sex of phantom (male or female).

[2] = Residence times normalised to human organ masses, iterative reconstruction; settings: rat, in vivo
Experimental: PET studies were reconstructed using filtered-back projection (FBP) and Mediso’s iterative Tera-Tomo 3D reconstruction algorithm with the following settings: 4 iterations, 6 subsets, full detector model, normal regularization, spike filter on, voxel size 0.4 mm and 400‒600 keV energy window. PET data were corrected for randoms, scatter and attenuation. Time-activity curves for each source organ, whole-body and remainder of the body were plotted. […] Residence times (τ) were determined for each radiotracer in source organs, whole-body and remaining (any activity assigned to the whole-body but not assigned to a source organ). Each preclinical source organ’s τ was determined by calculating the area under its respective time-activity curve (activity normalised to the percentage maximum injected dose as a function of time) using the trapezoid method. […] From each individual animal, eight dosimetry models were constructed from all possible combinations of image reconstruction method (FBP or iterative), τ (non-normalised or normalised to human organ masses), and sex of phantom (male or female). Supplementary table 1. Scaling (normalisation) factors applied to residence times of PET radiotracers in male Sprague-Dawley rats to predict human adult residence times. […] Stabin et al. 2006 ^4); WB: Whole Body.

[3] = OLINDA/EXM predicted clinical doses: adult male phantom, non-normalised τ, FBP; settings: rat, in vivo
Experimental: (§1) PET studies were reconstructed using filtered-back projection (FBP) and Mediso’s iterative Tera-Tomo 3D reconstruction algorithm with the following settings: 4 iterations, 6 subsets, full detector model, normal regularization, spike filter on, voxel size 0.4 mm and 400‒600 keV energy window. PET data were corrected for randoms, scatter and attenuation. Time-activity curves for each source organ, whole-body and remainder of the body were plotted. […] Residence times (τ) were determined for each radiotracer in source organs, whole-body and remaining (any activity assigned to the whole-body but not assigned to a source organ). Each preclinical source organ’s τ was determined by calculating the area under its respective time-activity curve (activity normalised to the percentage maximum injected dose as a function of time) using the trapezoid method. […] From each individual animal, eight dosimetry models were constructed from all possible combinations of image reconstruction method (FBP or iterative), τ (non-normalised or normalised to human organ masses), and sex of phantom (male or female).

[4] = OLINDA/EXM predicted clinical doses: adult male phantom, non-normalised τ, iterative; settings: rat, in vivo
Experimental: as §1

- Residence Time (h), Average: Brain [1]: 0.00193 h
- Residence Time (h), Average: Heart [1]: 0.00279 h
- Residence Time (h), Average: Intestine [1]: 0.209 h
- Residence Time (h), Average: Kidneys [1]: 0.029 h
- Residence Time (h), Average: Liver [1]: 0.0207 h
- Residence Time (h), Average: Lungs [1]: 0.00664 h
- Residence Time (h), Average: Remaining [1]: 1.96 h
- Residence Time (h), Average: Urinary Bladder [1]: 0.892 h
- Normalised Residence Time (h), Average: Remaining [2]: 1 h
- Effective Dose (mSv/MBq), Average [3]: 5.11E-02 mSv/MBq
- Estimated Absorbed Dose of Organ, Average: Adrenals [3]: 1.14E-02 mGy/MBq
- Estimated Absorbed Dose of Organ, Average: Brain [3]: 2.47E-03 mGy/MBq
- Estimated Absorbed Dose of Organ, Average: Breasts [3]: 7.90E-03 mGy/MBq
- Estimated Absorbed Dose of Organ, Average: Gallbladder Wall [3]: 1.24E-02 mGy/MBq
- Estimated Absorbed Dose of Organ, Average: Heart Wall [3]: 7.37E-03 mGy/MBq
- Estimated Absorbed Dose of Organ, Average: Kidneys [3]: 2.41E-02§ mGy/MBq
- Estimated Absorbed Dose of Organ, Average: LLI Wall [3]: 1.46E-01 ‡ mGy/MBq
- Estimated Absorbed Dose of Organ, Average: Liver [3]: 7.25E-03 mGy/MBq
- Estimated Absorbed Dose of Organ, Average: Lungs [3]: 6.07E-03 mGy/MBq
- Estimated Absorbed Dose of Organ, Average: Muscle [3]: 1.31E-02 mGy/MBq
- Estimated Absorbed Dose of Organ, Average: Osteogenic Cells [3]: 1.64E-02 mGy/MBq
- Estimated Absorbed Dose of Organ, Average: Pancreas [3]: 1.22E-02 mGy/MBq
- Estimated Absorbed Dose of Organ, Average: Red Marrow [3]: 1.21E-02 mGy/MBq
- Estimated Absorbed Dose of Organ, Average: Skin [3]: 8.75E-03 mGy/MBq
- Estimated Absorbed Dose of Organ, Average: Small Intestine [3]: 1.97E-02 mGy/MBq
- Estimated Absorbed Dose of Organ, Average: Spleen [3]: 1.15E-02 mGy/MBq
- Estimated Absorbed Dose of Organ, Average: Stomach Wall [3]: 1.21E-02 mGy/MBq
- Estimated Absorbed Dose of Organ, Average: Testes [3]: 1.85E-02 mGy/MBq
- Estimated Absorbed Dose of Organ, Average: Thymus [3]: 9.71E-03 mGy/MBq
- Estimated Absorbed Dose of Organ, Average: Thyroid [3]: 9.77E-03 mGy/MBq
- Estimated Absorbed Dose of Organ, Average: Total Body [3]: 1.30E-02 mGy/MBq
- Estimated Absorbed Dose of Organ, Average: ULI Wall [3]: 1.65E-02 mGy/MBq
- Estimated Absorbed Dose of Organ, Average: Urinary Bladder Wall [3]: 4.35E-01 † mGy/MBq
- Effective Dose (mSv/MBq), Average ± SD [4]: 6.30E-02 mSv/MBq
- Estimated Absorbed Dose of Organ, Average ± SD: Adrenals [4]: 7.60E-03 mGy/MBq
- Estimated Absorbed Dose of Organ, Average ± SD: Brain [4]: 1.47E-03 mGy/MBq
- Estimated Absorbed Dose of Organ, Average ± SD: Breasts [4]: 4.25E-03 mGy/MBq
- Estimated Absorbed Dose of Organ, Average ± SD: Gallbladder Wall [4]: 8.74E-03 mGy/MBq
- Estimated Absorbed Dose of Organ, Average ± SD: Heart Wall [4]: 6.02E-03 mGy/MBq
- Estimated Absorbed Dose of Organ, Average ± SD: Kidneys [4]: 4.41E-02 § mGy/MBq
- Estimated Absorbed Dose of Organ, Average ± SD: LLI Wall [4]: 1.50E-01 ‡ mGy/MBq
- Estimated Absorbed Dose of Organ, Average ± SD: Liver [4]: 8.14E-03 mGy/MBq
- Estimated Absorbed Dose of Organ, Average ± SD: Lungs [4]: 3.96E-03 mGy/MBq
- Estimated Absorbed Dose of Organ, Average ± SD: Muscle [4]: 1.06E-02 mGy/MBq
- Estimated Absorbed Dose of Organ, Average ± SD: Osteogenic Cells [4]: 1.00E-02 mGy/MBq
- Estimated Absorbed Dose of Organ, Average ± SD: Pancreas [4]: 7.83E-03 mGy/MBq
- Estimated Absorbed Dose of Organ, Average ± SD: Red Marrow [4]: 9.28E-03 mGy/MBq
- Estimated Absorbed Dose of Organ, Average ± SD: Skin [4]: 5.85E-03 mGy/MBq
- Estimated Absorbed Dose of Organ, Average ± SD: Small Intestine [4]: 1.73E-02 mGy/MBq
- Estimated Absorbed Dose of Organ, Average ± SD: Spleen [4]: 7.40E-03 mGy/MBq
- Estimated Absorbed Dose of Organ, Average ± SD: Stomach Wall [4]: 7.65E-03 mGy/MBq
- Estimated Absorbed Dose of Organ, Average ± SD: Testes [4]: 1.89E-02 mGy/MBq
- Estimated Absorbed Dose of Organ, Average ± SD: Thymus [4]: 5.18E-03 mGy/MBq
- Estimated Absorbed Dose of Organ, Average ± SD: Thyroid [4]: 5.01E-03 mGy/MBq
- Estimated Absorbed Dose of Organ, Average ± SD: Total Body [4]: 1.06E-02 mGy/MBq
- Estimated Absorbed Dose of Organ, Average ± SD: ULI Wall [4]: 1.35E-02 mGy/MBq
- Estimated Absorbed Dose of Organ, Average ± SD: Urinary Bladder Wall [4]: 6.89E-01 † mGy/MBq
Compound: NOTA-RGDfK [existing Al^18F-labelled NOTA-RGDfK peptide PET radiotracer; precursor NOTA-RGDfK (1)]

- Residence Time (h), Average: Brain [1]: 0.0124 h
- Residence Time (h), Average: Heart [1]: 0.0158 h
- Residence Time (h), Average: Intestine [1]: 0.372 h
- Residence Time (h), Average: Kidneys [1]: 0.0215 h
- Residence Time (h), Average: Liver [1]: 0.0249 h
- Residence Time (h), Average: Lungs [1]: 0.0155 h
- Residence Time (h), Average: Remaining [1]: 2.1 h
- Residence Time (h), Average: Urinary Bladder [1]: 0.65 h
- Normalised Residence Time (h), Average: Remaining [2]: 1.36 h
- Effective Dose (mSv/MBq), Average [3]: 5.79E-02 mSv/MBq
- Estimated Absorbed Dose of Organ, Average: Adrenals [3]: 1.22E-02 mGy/MBq
- Estimated Absorbed Dose of Organ, Average: Brain [3]: 4.36E-03 mGy/MBq
- Estimated Absorbed Dose of Organ, Average: Breasts [3]: 8.62E-03 mGy/MBq
- Estimated Absorbed Dose of Organ, Average: Gallbladder Wall [3]: 1.32E-02 mGy/MBq
- Estimated Absorbed Dose of Organ, Average: Heart Wall [3]: 1.51E-02 mGy/MBq
- Estimated Absorbed Dose of Organ, Average: Kidneys [3]: 2.01E-02§ mGy/MBq
- Estimated Absorbed Dose of Organ, Average: LLI Wall [3]: 2.39E-01† mGy/MBq
- Estimated Absorbed Dose of Organ, Average: Liver [3]: 8.09E-03 mGy/MBq
- Estimated Absorbed Dose of Organ, Average: Lungs [3]: 8.07E-03 mGy/MBq
- Estimated Absorbed Dose of Organ, Average: Muscle [3]: 1.35E-02 mGy/MBq
- Estimated Absorbed Dose of Organ, Average: Osteogenic Cells [3]: 1.76E-02 mGy/MBq
- Estimated Absorbed Dose of Organ, Average: Pancreas [3]: 1.32E-02 mGy/MBq
- Estimated Absorbed Dose of Organ, Average: Red Marrow [3]: 1.32E-02 mGy/MBq
- Estimated Absorbed Dose of Organ, Average: Skin [3]: 9.20E-03 mGy/MBq
- Estimated Absorbed Dose of Organ, Average: Small Intestine [3]: 2.21E-02 mGy/MBq
- Estimated Absorbed Dose of Organ, Average: Spleen [3]: 1.23E-02 mGy/MBq
- Estimated Absorbed Dose of Organ, Average: Stomach Wall [3]: 1.34E-02 mGy/MBq
- Estimated Absorbed Dose of Organ, Average: Testes [3]: 1.76E-02 mGy/MBq
- Estimated Absorbed Dose of Organ, Average: Thymus [3]: 1.07E-02 mGy/MBq
- Estimated Absorbed Dose of Organ, Average: Thyroid [3]: 1.05E-02 mGy/MBq
- Estimated Absorbed Dose of Organ, Average: Total Body [3]: 1.38E-02 mGy/MBq
- Estimated Absorbed Dose of Organ, Average: ULI Wall [3]: 1.76E-02 mGy/MBq
- Estimated Absorbed Dose of Organ, Average: Urinary Bladder Wall [3]: 3.23E-01‡ mGy/MBq
- Effective Dose (mSv/MBq), Average ± SD [4]: 6.24E-02 mSv/MBq
- Estimated Absorbed Dose of Organ, Average ± SD: Adrenals [4]: 9.39E-03 mGy/MBq
- Estimated Absorbed Dose of Organ, Average ± SD: Brain [4]: 5.73E-03 mGy/MBq
- Estimated Absorbed Dose of Organ, Average ± SD: Breasts [4]: 5.93E-03 mGy/MBq
- Estimated Absorbed Dose of Organ, Average ± SD: Gallbladder Wall [4]: 1.04E-02 mGy/MBq
- Estimated Absorbed Dose of Organ, Average ± SD: Heart Wall [4]: 2.60E-02 mGy/MBq
- Estimated Absorbed Dose of Organ, Average ± SD: Kidneys [4]: 3.58E-02 § mGy/MBq
- Estimated Absorbed Dose of Organ, Average ± SD: LLI Wall [4]: 1.92E-01 ‡ mGy/MBq
- Estimated Absorbed Dose of Organ, Average ± SD: Liver [4]: 9.19E-03 mGy/MBq
- Estimated Absorbed Dose of Organ, Average ± SD: Lungs [4]: 6.86E-03 mGy/MBq
- Estimated Absorbed Dose of Organ, Average ± SD: Muscle [4]: 1.15E-02 mGy/MBq
- Estimated Absorbed Dose of Organ, Average ± SD: Osteogenic Cells [4]: 1.26E-02 mGy/MBq
- Estimated Absorbed Dose of Organ, Average ± SD: Pancreas [4]: 9.88E-03 mGy/MBq
- Estimated Absorbed Dose of Organ, Average ± SD: Red Marrow [4]: 1.08E-02 mGy/MBq
- Estimated Absorbed Dose of Organ, Average ± SD: Skin [4]: 6.97E-03 mGy/MBq
- Estimated Absorbed Dose of Organ, Average ± SD: Small Intestine [4]: 1.91E-02 mGy/MBq
- Estimated Absorbed Dose of Organ, Average ± SD: Spleen [4]: 9.14E-03 mGy/MBq
- Estimated Absorbed Dose of Organ, Average ± SD: Stomach Wall [4]: 9.73E-03 mGy/MBq
- Estimated Absorbed Dose of Organ, Average ± SD: Testes [4]: 1.82E-02 mGy/MBq
- Estimated Absorbed Dose of Organ, Average ± SD: Thymus [4]: 7.56E-03 mGy/MBq
- Estimated Absorbed Dose of Organ, Average ± SD: Thyroid [4]: 6.91E-03 mGy/MBq
- Estimated Absorbed Dose of Organ, Average ± SD: Total Body [4]: 1.19E-02 mGy/MBq
- Estimated Absorbed Dose of Organ, Average ± SD: ULI Wall [4]: 1.49E-02 mGy/MBq
- Estimated Absorbed Dose of Organ, Average ± SD: Urinary Bladder Wall [4]: 5.53E-01 † mGy/MBq
Compound: O=C[C@H]([18F])[C@@H](O)[C@H](O)[C@H](O)CO [FDG, 2-deoxy-2-[^18F]fluoro-D-glucose]
